Biological target: T1, Recombinant human His6-USP1/His6-UAF1 complex protein (Homo sapiens, UniProt O94782)
T1 construct: His6; purchased R&D E-568-050
Assay: In vitro inhibitory activity against USP1 (Ubiquitin Rhodamine 110 fluorescence detection, 384-well plate)
Type: biochemical
Settings: Ub-Rho substrate, 1 hour pre-incubation, read after 30 minutes
Procedure: Test Example 1: In vitro inhibitory activity against USP1 […]
Experimental object: to screen compounds with inhibitory activity against USP1 […] by a fluorescence detection method, using a 384-well plate.
Experimental materials: Recombinant human His6-USP1/His6-UAF1 complex protein (R&D, Cat. No.: E-568-050), Ubiquitin Rhodamine 110 protein (Ub-Rho) (R&D, Cat. No.: U-555-050), 384-well plate (Perkin Elmer, Cat. No.: 6007279); all compounds were dissolved in 100% DMSO to obtain 50 mM stock solutions.
• 1) Preparation of 1 × assay buffer: 1 × assay buffer (modified Tris buffer) was prepared; • 2) Dilution of compounds: the compounds were transferred to an assay plate via Echo.

T1 sequence (O94782 whole entry): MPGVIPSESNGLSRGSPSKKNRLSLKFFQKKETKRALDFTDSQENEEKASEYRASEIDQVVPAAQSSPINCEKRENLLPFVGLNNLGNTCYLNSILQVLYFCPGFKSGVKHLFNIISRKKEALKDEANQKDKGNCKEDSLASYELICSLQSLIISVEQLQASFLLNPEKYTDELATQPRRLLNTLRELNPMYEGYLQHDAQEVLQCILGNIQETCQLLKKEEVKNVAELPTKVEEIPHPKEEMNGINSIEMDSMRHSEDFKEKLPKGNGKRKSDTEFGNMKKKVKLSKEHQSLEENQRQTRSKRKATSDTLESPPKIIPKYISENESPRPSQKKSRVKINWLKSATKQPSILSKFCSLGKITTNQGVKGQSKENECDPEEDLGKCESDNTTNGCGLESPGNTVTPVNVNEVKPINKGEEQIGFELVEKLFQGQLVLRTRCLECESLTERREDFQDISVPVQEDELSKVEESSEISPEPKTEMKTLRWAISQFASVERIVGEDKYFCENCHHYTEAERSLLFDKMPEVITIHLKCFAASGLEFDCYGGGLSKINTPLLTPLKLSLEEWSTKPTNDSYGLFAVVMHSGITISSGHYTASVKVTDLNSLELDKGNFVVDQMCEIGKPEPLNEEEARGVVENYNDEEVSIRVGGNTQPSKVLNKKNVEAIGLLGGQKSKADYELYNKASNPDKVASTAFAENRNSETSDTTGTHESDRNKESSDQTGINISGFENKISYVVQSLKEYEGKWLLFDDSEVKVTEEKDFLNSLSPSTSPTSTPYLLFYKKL
T1 sequence (Q8TAF3 whole entry partner): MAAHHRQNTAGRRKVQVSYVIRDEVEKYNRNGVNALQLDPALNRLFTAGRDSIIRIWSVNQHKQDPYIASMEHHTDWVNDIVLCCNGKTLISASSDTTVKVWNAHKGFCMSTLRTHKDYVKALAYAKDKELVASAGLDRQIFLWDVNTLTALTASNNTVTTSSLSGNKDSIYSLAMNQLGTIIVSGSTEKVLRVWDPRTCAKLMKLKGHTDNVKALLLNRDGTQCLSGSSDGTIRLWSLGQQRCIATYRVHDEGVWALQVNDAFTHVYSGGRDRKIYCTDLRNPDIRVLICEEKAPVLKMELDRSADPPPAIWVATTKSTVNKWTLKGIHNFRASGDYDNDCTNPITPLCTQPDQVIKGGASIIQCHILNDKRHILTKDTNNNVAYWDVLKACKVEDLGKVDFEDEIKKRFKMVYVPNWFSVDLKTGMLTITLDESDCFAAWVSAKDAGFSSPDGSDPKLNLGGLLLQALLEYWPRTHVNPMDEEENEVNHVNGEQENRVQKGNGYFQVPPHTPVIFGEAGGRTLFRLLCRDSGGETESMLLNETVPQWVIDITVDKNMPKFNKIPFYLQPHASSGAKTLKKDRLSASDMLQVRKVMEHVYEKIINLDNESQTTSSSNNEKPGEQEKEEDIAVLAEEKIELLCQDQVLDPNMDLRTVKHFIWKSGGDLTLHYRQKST

Point of comparison: COc1cnc(-c2cccc3c2N(C)CC3)nc1NCc1ccc(-n2nc(C(F)(F)F)cc2C)cc1 [Example 146], IC50 18 nM. Against it:
- COc1ncnc(C2CC2)c1-c1nc(NCc2ccc(OC3CC(OC)C3)cc2)c2occc2n1 (stereo not shown) [Example 118, 2-(4-Cyclopropyl-6-methoxypyrimidin-5-yl)-N-(4-(3-methoxycyclobutoxy)benzyl)furo[3,2-d]pyrimidin-4-amine] — 3.2-fold higher, 58 nM
- COC1CC(Oc2ccc(CNc3nc(-c4ccccc4C(C)C)nc4ccoc34)cc2)C1 (stereo not shown) [Example 80, 2-(2-Isopropylphenyl)-N-(4-(3-methoxycyclobutoxy)benzyl)furo[3,2-d]pyrimidin-4-amine] — within 1.5-fold, 26 nM
- COc1cnc(-c2c(OC)ncnc2C2CC2)nc1N(C)CC12CCC(c3nc(C(F)(F)F)cn3C)(CC1)OC2 [Example S10, 4'-Cyclopropyl-5,6'-dimethoxy-N-methyl-N-((1-(1-methyl-4-(trifluoromethyl)-1H-imidazol-2-yl)-2-oxabicyclo[2.2.2]oct-4-yl)methyl)-[2,5'-bipyrimidin]-4-amine] — within 1.5-fold, 19 nM
- COc1cnc(-c2c(Cl)cnn2C(C)C)nc1NCC12CCC(c3nc(C(F)(F)F)cn3C3CCC3)(CC1)OC2 [Example S11, 2-(4-Chloro-1-isopropyl-1H-pyrazol-5-yl)-N-((1-(1-cyclobutyl-4-(trifluoromethyl)-1H-imidazol-2-yl)-2-oxabicyclo[2.2.2]oct-4-yl)methyl)-5-methoxypyrimidin-4-amine] — 3-fold lower, 6.1 nM
- CC(C)c1ccccc1-c1ncc(C(F)(F)F)c(NCC2CCN(c3ccccn3)CC2)n1 [Example 76, 2-(2-Isopropylphenyl)-N-((1-(pyridin-2-yl)piperidin-4-yl)methyl)-5-(trifluoromethyl)pyrimidin-4-amine] — 1.7-fold higher, 30.1 nM
- CC(C)Oc1cnc(-c2ccccc2C(C)C)nc1NCC12CCC(c3ccc(C(F)(F)F)cn3)(CC1)CC2 [Example 74, 5-Isopropoxy-2-(2-isopropylphenyl)-N-((4-(5-(trifluoromethyl)pyridin-2-yl)bicyclo[2.2.2]octan-1-yl)methyl)pyrimidin-4-amine] — 48-fold higher, 873 nM
- COc1cnc(-c2c(OC)ncnc2C2CC2)nc1N(C#N)Cc1ccc(-c2nc(C(F)(F)F)cn2C)cc1 [Example 206, N-(4'-cyclopropyl-5,6'-dimethoxy-[2,5'-bipyrimidin]-4-yl)-N-(4-(1-methyl-4-(trifluoromethyl)-1H-imidazol-2-yl)benzyl)cyanamide] — 5.1-fold lower, 3.5 nM
- COc1cnc(-c2c(C)ncn2C(C)C)nc1NCc1ccc(-c2nc(C(F)(F)F)cn2C)cc1 [Example 147, 2-(1-Isopropyl-4-methyl-1H-imidazol-5-yl)-5-methoxy-N-(4-(1-methyl-4-(trifluoromethyl)-1H-imidazol-2-yl)benzyl)pyrimidin-4-amine] — 20-fold higher, 364 nM
- COc1cnc(-c2c(OC)cnn2C2CC2)nc1NCc1ccc(-c2ccccn2)cc1 [Example 183, 2-(1-Cyclopropyl-4-methoxy-1H-pyrazol-5-yl)-5-methoxy-N-(4-(pyridin-2-yl)benzyl)pyrimidin-4-amine] — 9.1-fold higher, 164 nM
- COc1cnc(-c2c(Cl)cnn2C(C)C)nc1N(C)CC12CCC(c3nc(C(F)(F)F)cn3C)(CC1)OC2 [Example 211, 2-(4-chloro-1-isopropyl-1H-pyrazol-5-yl)-5-methoxy-N-methyl-N-((1-(1-methyl-4-(trifluoromethyl)-1H-imidazol-2-yl)-2-oxabicyclo [2.2.2]octan-4-yl)methyl)pyrimidin-4-amine] — 3-fold lower, 6.1 nM
- COc1cnc(-c2ccccc2C(C)C)nc1NCc1ccc(OCc2ccccn2)cc1 [Example 67, 2-(2-Isopropylphenyl)-5-methoxy-N-(4-(pyridin-2-ylmethoxy)benzyl)pyrimidin-4-amine] — 3.4-fold lower, 5.3 nM
- CC(C)c1ccccc1-c1nc(NCc2ccc3c(c2)CCN(C)C3=O)c2occc2n1 [Example 77, 6-(((2-(2-Isopropylphenyl)furo[3,2-d]pyrimidin-4-yl)amino)methyl)-2-methyl-3,4-dihydroisoquinolin-1 (2H)-one] — 1.6-fold higher, 28 nM
- COc1ncnc(C2CC2)c1-c1nc(NCc2ccc(-c3ccccn3)cc2)c2[nH]ccc2n1 [Example 37, 2-(4-Cyclopropyl-6-methoxypyrimidin-5-yl)-N-(4-(pyridin-2-yl)benzyl)-5H-pyrrolo[3,2-d]pyrimidin-4-amine] — 2.8-fold higher, 51 nM
- Cc1cc(C(F)(F)F)nn1-c1ccc(CNc2nc(-c3ccccc3C(C)C)ncc2O)cc1 [Example 90, 2-(2-Isopropylphenyl)-4-((4-(5-methyl-3-(trifluoromethyl)-1H-pyrazol-1-vl)benzyl)amino)pyrimidin-5-ol] — 5.7-fold higher, 102 nM
- COc1cnc(-c2c(C)noc2C(C)C)nc1NCC1CCN(c2nc(C(F)(F)F)cn2C)CC1 [Example 187, 2-(5-Isopropyl-3-methylisoxazol-4-yl)-5-methoxy-N-((1-(1-methyl-4-(trifluoromethyl)-1H-imidazol-2-yl)piperidin-4-yl)methyl)pyrimidin-4-amine] — within 1.5-fold, 23.5 nM
- COc1cnc(-c2c(C)cnn2C2CC2)nc1N(O)Cc1ccc(-c2nc(C(F)(F)F)cn2C)cc1 [Example 205, N-(2-(1-cyclopropyl-4-methyl-1H-pyrazol-5-yl)-5-methoxypyrimidin-4-yl)-N-(4-(1-methyl-4-(trifluoromethyl)-1H-imidazol-2-yl)benzyl)hydroxylamine] — 2.4-fold higher, 43 nM
- CC(C)c1ccccc1-c1ncc(C(F)(F)F)c(NCc2ccc(-c3ccccn3)cc2)n1 [Example 16, 2-(2-Isopropylphenyl)-N-(4-(pyridin-2-yl)benzyl)-5-(trifluoromethyl)pyrimidin-4-amine] — 1.7-fold higher, 30.6 nM
- CC(C)c1ccccc1-c1ncc2c(n1)N(CC1CCC(c3nc(C(F)(F)F)cn3C)CC1)CCO2 [Example 13, 2-(2-Isopropylphenyl)-8-(((1R,4R)-4-(1-methyl-4-(trifluoromethyl)-1H-imidazol-2-yl)cyclohexyl)methyl)-7,8-dihydro-6H-pyrimido [5,4-b][1,4] oxazine] — 9.5-fold lower, 1.9 nM
- COc1cnn(C(C)C)c1-c1nc(NCc2ccc(-c3ccccn3)cc2)c2occc2n1 [Example 181, 2-(1-Isopropyl-4-methoxy-1H-pyrazol-5-yl)-N-(4-(pyridin-2-yl)benzyl)furo[3,2-d]pyrimidin-4-amine] — 1.5-fold higher, 27 nM
- CC(C)c1ccccc1-c1ncc2c(n1)N(CC1CCN(c3nc(C(F)(F)F)cn3C)CC1)C(=O)CO2 [Example 24, 2-(2-Isopropylphenyl)-8-((1-(1-methyl-4-(trifluoromethyl)-1H-imidazol-2-yl)piperidin-4-yl)methyl)-6H-pyrimido[5,4-b][1,4]oxazin-7(8H)-one] — 2-fold lower, 8.8 nM
- CC(C)c1ccccc1-c1ncc(C(F)(F)F)c(NCC2CCN(c3nc(C(F)(F)F)cn3C)CC2)n1 [Example 25, 2-(2-Isopropylphenyl)-N-((1-(1-methyl-4-(trifluoromethyl)-1H-imidazol-2-yl)piperidin-4-yl)methyl)-5-(trifluoromethyl)pyrimidin-4-amine] — 4.9-fold lower, 3.7 nM
- COc1cnc(-c2c(OC)ncnc2C2CC2)nc1NCc1ccc(-c2nc(C(F)(F)F)cn2C)cc1 [Example 29, 4'-Cyclopropyl-5,6'-dimethoxy-N-(4-(1-methyl-4-(trifluoromethyl)-1H-imidazol-2-yl)benzyl)-[2,5'-bipyrimidin]-4-amine] — 3.8-fold lower, 4.8 nM
- COc1cnc(-c2cccc3ccn(C)c23)nc1NCc1ccc(-n2nc(C(F)(F)F)cc2C)cc1 [Example 144, 5-Methoxy-2-(1-methyl-1H-indol-7-yl)-N-(4-(5-methyl-3-(trifluoromethyl)-1H-pyrazol-1-yl)benzyl)pyrimidin-4-amine] — 3.8-fold higher, 68.6 nM
- COc1cnc(-c2ccccc2C(C)C)nc1N(C)Cc1ccc(-c2ccccn2)cc1 [Example 1, 2-(2-isopropylphenyl)-5-methoxy-N-methyl-N-(4-(pyridin-2-yl)benzyl)pyrimidin-4-amine] — within 1.5-fold, 26 nM
- Cn1cc(C(F)F)nc1-c1ccc(CNc2nc(-c3cncnc3C3CC3)nc3ccoc23)cc1 [Example 197, 2-(4-Cyclopropylpyrimidin-5-yl)-N-(4-(4-(difluoromethyl)-1-methyl-1H-imidazol-2-yl)benzyl)furo[3,2-d]pyrimidin-4-amine] — 7.4-fold higher, 133 nM
- COc1cnc(-c2c(C)noc2C(C)C)nc1N(C)CC1CCN(c2ccccn2)CC1 [Example 186, 2-(5-Isopropyl-3-methylisoxazol-4-yl)-5-methoxy-N-methyl-N-((1-(pyridin-2-yl)piperidin-4-yl)methyl)pyrimidin-4-amine] — 3.7-fold higher, 66 nM
- Cc1ncn(C(C)C)c1-c1nc(NCC23CCC(c4ccc(C(F)(F)F)cn4)(CC2)CC3)c2occc2n1 [Example 150, 2-(1-Isopropyl-4-methyl-1H-imidazol-5-yl)-N-((4-(5-(trifluoromethyl)pyridin-2-yl)bicyclo[2.2.2]octan-1-yl)methyl)furo[3,2-d]pyrimidin-4-amine] — 24-fold higher, 431 nM
- CC(C)c1ccccc1-c1nc(NCc2ccc3c(c2)CCN(C(C)C)C3=O)c2occc2n1 [Example 78, 2-Isopropyl-6-(((2-(2-isopropylphenyl)furo[3,2-d]pyrimidin-4-yl)amino)methyl)-3,4-dihydroisoquinolin-1(2H)-one] — 2.8-fold lower, 6.4 nM
- COc1cnc(-c2c(OC)cnn2C(C)C)nc1NCc1ccc(-c2ccccn2)cc1 [Example 178, 2-(1-Isopropyl-4-methoxy-1H-pyrazol-5-yl)-5-methoxy-N-(4-(pyridin-2-yl)benzyl)pyrimidin-4-amine] — 6.1-fold higher, 110 nM
- COc1cnc(-c2c(OC)ncnc2C2(F)CC2)nc1NCC1CCC(c2nc(C(F)(F)F)cn2C2CC2)CC1 [Example S38, N-(((1R,4R)-4-(1-cyclopropyl-4-(trifluoromethyl)-1H-imidazol-2-yl)cyclohexyl)methyl)-4'-(1-fluorocyclopropyl)-5,6'-dimethoxy-[2,5'-bipyrimidin]-4-amine] — 12-fold higher, 220 nM

— patent publication EP4741386A1 (Jiangsu Yahong Meditech Co., Ltd., priority 2023, dated 2025)
